Laboratory results taken from US20180104224A1, “PHARMACEUTICAL COMPOSITIONS COMPRISING ANTIBACTERIAL AGENTS” (priority 2014, published 2018).

Experiments:
[1] = tested on: highly resistant strains of Pseudomonas aeruginosa; assay: MIC determination, all strains; format: cell-based; settings: highly resistant strains of P. aeruginosa
Protocol: (§1) The antibacterial activity of combinations according to the invention against resistant bacterial strains was investigated. Minimum Inhibitory Concentration (MIC) determination for the combinations according to invention was carried out in Muller Hinton Agar (MHA) (BD, USA) according to Clinical and Laboratory Standards Institute (CLSI) recommendations, (Clinical and Laboratory Standards Institute (CLSI), Performance Standards for Antimicrobial Susceptibility Testing, 20th Informational Supplement, M 100-S20, Volume 30, No. 1, 2010). In short, the test strains were adjusted to deliver about 10^4 CFU per spot with a multipoint inoculator (Applied Quality Services, UK). The plates were pored with MHA containing doubling concentration range of the test combinations according to invention. The plates were inoculated and were incubated at 35° C. for 18 hours.
The results on antibacterial activity of a carbapenem antibacterial agent selected from imipenem, meropenem, ertapenem and doripenem alone and in combination with Compound A or Compound B, against highly resistant strains of Pseudomonas aeruginosa are given in Table 1. […] For example, P. aeruginosa 2779 harbors resistance due to increased AmpC expression (300 times) and increased efflux; P. aeruginosa 1405 harbors resistance due to increased AmpC expression (600 times), reduced OprD expression and increased efflux; P. aeruginosa R 70 harbors resistance due to reduced OprD expression and increased efflux; and P. aeruginosa J 154 harbors resistance due to reduced OprD.

P. aeruginosa 1405 = assay: MIC determination in Muller Hinton Agar (CLSI); format: cell-based, Pseudomonas aeruginosa; settings: for MIC (mcg/ml) of carbapenem in presence of [A] at 4 mcg/ml: in presence of Compound A at 4 mcg/ml; for MIC (mcg/ml) of carbapenem in presence of [B] at 4 mcg/ml: in presence of Compound B at 4 mcg/ml;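 for all read-outs here: MIC read as lowest concentration giving complete growth inhibition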
Protocol: as §1

P. aeruginosa J 154 = assay: MIC determination in Muller Hinton Agar (CLSI);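 for MIC (mcg/ml) of carbapenem in presence of [A] at 4 mcg/ml: MIC read as lowest concentration giving complete growth inhibition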;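 for MIC (mcg/ml) of carbapenem in presence of [B] at 4 mcg/ml: MIC read as lowest concentration giving complete growth inhibition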; format: cell-based, Pseudomonas aeruginosa; settings: for MIC: Pseudomonas aeruginosa, J154, agent alone, P. aeruginosa J 154 [Reduced OprD]; for MIC (mcg/ml) of carbapenem in presence of [A] at 4 mcg/ml: in presence of Compound A at 4 mcg/ml; for MIC (mcg/ml) of carbapenem in presence of [A] at 4 mcg/ml / MIC (mcg/ml) of carbapenem in presence of [B] at 4 mcg/ml: P. aeruginosa J 154; for MIC (mcg/ml) of carbapenem in presence of [B] at 4 mcg/ml: in presence of Compound B at 4 mcg/ml
Protocol: as §1

P. aeruginosa 2779 = assay: MIC determination in Muller Hinton Agar (CLSI); format: cell-based, Pseudomonas aeruginosa; settings: for MIC (mcg/ml) of carbapenem in presence of [A] at 4 mcg/ml: in presence of Compound A at 4 mcg/ml; for MIC (mcg/ml) of carbapenem in presence of [B] at 4 mcg/ml: in presence of Compound B at 4 mcg/ml;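 for all read-outs here: MIC read as lowest concentration giving complete growth inhibition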
Protocol: as §1

P. aeruginosa R 70 = assay: MIC determination in Muller Hinton Agar (CLSI); format: cell-based, Pseudomonas aeruginosa; settings: for MIC: Pseudomonas aeruginosa, R70, 18 h, agent alone, P. aeruginosa R 70 [Reduced OprD + increased efflux]; for MIC (mcg/ml) of carbapenem in presence of [A] at 4 mcg/ml: in presence of Compound A at 4 mcg/ml; for MIC (mcg/ml) of carbapenem in presence of [A] at 4 mcg/ml / MIC (mcg/ml) of carbapenem in presence of [B] at 4 mcg/ml: P. aeruginosa R 70; for MIC (mcg/ml) of carbapenem in presence of [B] at 4 mcg/ml: in presence of Compound B at 4 mcg/ml
Protocol: as §1

[2] = tested on: Pseudomonas aeruginosa R70; assay: Time kill study; format: cell-based; settings: P. aeruginosa R70
Protocol: (§2) The synergistic killing effect of the combinations according to invention was studied by performing time kill studies. In a typical time kill study, the freshly grown cultures were diluted to the required cell density (initial starting inoculum) in Cation adjusted Muller Hinton broth medium (BD, USA). The antibacterial agents (either alone or in combination) at the required concentrations were added into the culture-containing medium. The samples were incubated under shaking condition (120 rpm) at 37° C. Enumeration of viable bacterial count was done every 2 hour by diluting in normal saline and plating on to the Tryptic Soya Agar plates (BD, USA). The plates were incubated for 24 hours to arrive at the viable bacterial count. The results are expressed in terms of Log10 CFU per ml. In general, the decrease of 1 Log10 CFU/ml, corresponds to 90% killing of bacteria.

[3] = tested on: Pseudomonas aeruginosa 1405; assay: Time kill study; format: cell-based; settings: P. aeruginosa 1405; for Bacterial count (Log10 CFU/ml) 0 hour / Bacterial count (Log10 CFU/ml) 2 hour / Bacterial count (Log10 CFU/ml) 4 hour / Bacterial count (Log10 CFU/ml) 6 hour: single agent 4 mcg/ml
Protocol: as §2

Row | Compound | MIC (mcg/ml) of carbapenem in presence of [A] at 4 mcg/ml (P. aeruginosa 1405) [µg/mL] | MIC (mcg/ml) of carbapenem in presence of [B] at 4 mcg/ml (P. aeruginosa 1405) [µg/mL] | MIC (P. aeruginosa J 154) [mg/L] | MIC (mcg/ml) of carbapenem in presence of [A] at 4 mcg/ml (P. aeruginosa J 154) [µg/mL] | MIC (mcg/ml) of carbapenem in presence of [B] at 4 mcg/ml (P. aeruginosa J 154) [µg/mL] | MIC (mcg/ml) of carbapenem in presence of [A] at 4 mcg/ml (P. aeruginosa 2779) [µg/mL] | MIC (mcg/ml) of carbapenem in presence of [B] at 4 mcg/ml (P. aeruginosa 2779) [µg/mL] | MIC (P. aeruginosa R 70) [mg/L] | MIC (mcg/ml) of carbapenem in presence of [A] at 4 mcg/ml (P. aeruginosa R 70) [µg/mL] | MIC (mcg/ml) of carbapenem in presence of [B] at 4 mcg/ml (P. aeruginosa R 70) [µg/mL] | Bacterial count (Log10 CFU/ml) 0 hour ([3]; Table 2) [Log10 CFU/ml] | Bacterial count (Log10 CFU/ml) 2 hour ([3]; Table 2) [Log10 CFU/ml] | Bacterial count (Log10 CFU/ml) 4 hour ([3]; Table 2) [Log10 CFU/ml] | Bacterial count (Log10 CFU/ml) 6 hour ([3]; Table 2) [Log10 CFU/ml] | Bacterial count (Log10 CFU/ml) 0 hour ([3]; Table 3) [Log10 CFU/ml] | Bacterial count (Log10 CFU/ml) 2 hour ([3]; Table 3) [Log10 CFU/ml] | Bacterial count (Log10 CFU/ml) 4 hour ([3]; Table 3) [Log10 CFU/ml] | Bacterial count (Log10 CFU/ml) 6 hour ([3]; Table 3) [Log10 CFU/ml] | further results
1 | C[C@@H](O)[C@H]1C(=O)N2C(C(=O)O)=C(S[C@@H]3CN[C@H](CNS(N)(=O)=O)C3)[C@H](C)[C@H]12 [Doripenem, doripenem] | 4 | 4 | 8 | 8 | 4 | 0.12 | 0.06 | 16 | 8 | <0.12 | 6.84 | 6.17 | 5.90 | 6.60 | 6.81 | 6.17 | 5.90 | 6.60 | MIC values (in words) ([1]; in presence of Compound A or Compound B): decreased significantly; MIC values (in words) ([1]; when used alone): higher MIC values; effect on bacterial counts through out the duration of the study (in words) ([2]; when used alone): failed to reduce the bacterial counts; Bacterial count (Log10 CFU/ml) 0 hour ([2]; Table 4, single agent 4 mcg/ml): 6.62 Log10 CFU/ml; Bacterial count (Log10 CFU/ml) 2 hour ([2]; Table 4, single agent 4 mcg/ml): 5.74 Log10 CFU/ml; Bacterial count (Log10 CFU/ml) 4 hour ([2]; Table 4, single agent 4 mcg/ml): 5.65 Log10 CFU/ml; Bacterial count (Log10 CFU/ml) 6 hour ([2]; Table 4, single agent 4 mcg/ml): 5.65 Log10 CFU/ml; Bacterial count (Log10 CFU/ml) 0 hour ([2]; Table 5, single agent 4 mcg/ml): 6.44 Log10 CFU/ml; Bacterial count (Log10 CFU/ml) 2 hour ([2]; Table 5, single agent 4 mcg/ml): 5.74 Log10 CFU/ml; Bacterial count (Log10 CFU/ml) 4 hours ([2]; Table 5, single agent 4 mcg/ml): 5.65 Log10 CFU/ml; Bacterial count (Log10 CFU/ml) 6 hour ([2]; Table 5, single agent 4 mcg/ml): 5.65 Log10 CFU/ml; effect on bacterial counts through out the duration of the study (in words) ([3]; when used alone): failed to reduce the bacterial counts
2 | C[C@@H](O)[C@H]1C(=O)N2C(C(=O)O)=C(SCCN=CN)C[C@H]12 [Imipenem, imipenem] | 1 | 1 | 16 | 4 | 0.5 | ≤0.25 | 0.12 | 8 | 2 | ≤0.12 | 6.84 | 6.39 | 7.04 | 8.16 | 6.81 | 6.4 | 7.78 | 7.93 | Bacterial count (Log10 CFU/ml) 0 hour ([2]; Table 4, single agent 2 mcg/ml): 6.62 Log10 CFU/ml; Bacterial count (Log10 CFU/ml) 2 hour ([2]; Table 4, single agent 2 mcg/ml): 5.7 Log10 CFU/ml; Bacterial count (Log10 CFU/ml) 4 hour ([2]; Table 4, single agent 2 mcg/ml): 5.98 Log10 CFU/ml; Bacterial count (Log10 CFU/ml) 6 hour ([2]; Table 4, single agent 2 mcg/ml): 6.78 Log10 CFU/ml; Bacterial count (Log10 CFU/ml) 0 hour ([2]; Table 5, single agent 2 mcg/ml): 6.44 Log10 CFU/ml; Bacterial count (Log10 CFU/ml) 2 hour ([2]; Table 5, single agent 2 mcg/ml): 5.6 Log10 CFU/ml; Bacterial count (Log10 CFU/ml) 4 hours ([2]; Table 5, single agent 2 mcg/ml): 5.8 Log10 CFU/ml; Bacterial count (Log10 CFU/ml) 6 hour ([2]; Table 5, single agent 2 mcg/ml): 6.3 Log10 CFU/ml
